Here are results for one molecule from patent US12233056B2, “Lysyl oxidase inhibitors for treating myeloid malignancies” (Syntara Limited, priority 2022, dated 2025).

Assay [1] relates to in vitro co-cultured, patient derived, MSC/HSC cells. As to the kind of experiment: Erythroid differentiation in in vitro co-cultured, patient derived MSC/HSC cells. The assay is classed as cell-based, human. The following applies: 2 μM PXS-5505, 100 nM 5-AZA daily; flow cytometry after 14 days; n=3; FIG. 1. The source says: Healthy CD34+ cells were isolated from hip replacement surgery bone specimen (old CD34+ cells) or collected by iliac crest puncture of healthy volunteers (young CD34+ cells). Approval for collection of patient samples was given by the Institutional Review Board of the Medical Faculty Mannheim, University of Heidelberg, Germany, in accordance with the declaration of Helsinki. All patients were informed and provided written consent for sample collection. Mononuclear cells (MNC) were isolated from bone marrow by Ficoll density gradient. CD34+ cells from MNC were isolated using MACS enrichment columns (Miltenyi Biotec, Bergisch Gladbach, Germany) according to the manufacturer's instructions as described. Purity of the CD34+ populations were confirmed by FACS analysis to be >95%. These were then viably frozen and thawed immediately before xenotransplantation.
Mesenchymal stromal cells (MSC) were isolated from residual diagnostic material and selected via their plastic adherence properties in culture. MSC were expanded in NH-Expansion medium (Miltenyi Biotec) and cultured to a maximum of 4 passages. Ex-vivo expanded MSCs were FACS analyzed to confirm adherence to the minimal criteria for defining multipotent mesenchymal stromal cells as described in [Medyouf, 2014]. […]
(In flow cytometry, cells or beads pass a laser one at a time.)

Assay [2] deals with erythroid differentiation (the CD235a+ and CD45− population) in the bone marrow collected from xenotransplanted mice. As to the kind of experiment: Xenotransplantation model: erythroid differentiation from bone marrow of xenotransplanted mice. The assay is classed as in vivo. The settings on record: 5-AZA 75 mg/m2 5+2 schedule, 3 cycles; PXS-5505 30 mg/kg every 48 h; 3 months; FIG. 2. How it is done:
Female immunocompromised mice (NSG and NSGS, Jackson Laboratory) aged 6-8 week old were sub-lethally irradiated (200 cGy) before intrafemoral injections with a mix of CD34+ and MSCs cells (1×10^5:5×10^5) from primary myelofibrosis patients (with grade 3 fibrosis) as described previously [Medyouf, 2014]. The mice were treated with 5-AZA (75 mg/m^2 5+2 schedule, 3 cycles in total) and/or PXS-5505 (30 mg/kg every 48 h for the duration of 5-AZA treatment) for 3 months. At endpoint human CD45+ cells were FACS-sorted from mouse bone marrow. The CD45+ cells were differentiated in the medium supplemented with 5 U/mL EPO, 100 ng/mL SCF and 5 ng/mL IL-3 for 21 days followed by flow cytometry analysis for CD235a and CD45 markers as described previously.
Furthermore, it presents the rescue erythroid differentiation for a variety of different disease subtypes of myelodysplastic syndrome, chronic myelomonocytic leukemia and acute myeloid leukemia.

For `NC/C=C(\F)CS(=O)(=O)c1cccc2cccnc12` [PXS-5505], in assay [1], the “erythroid differentiation (CD235a+, CD45− cells)” value is on record as “could rescue erythropoiesis”. The “erythroid differentiation (CD235a+ and CD45− population) in bone marrow from xenotransplanted mice” value in assay [2] is “could rescue erythropoiesis”.
